Laboratory results: article PMC9050674, “Structure-based inhibitor design for reshaping bacterial morphology” (Communications Biology, 2022)
Several values for one entry are separate records, joined by “and”; a condition that tells them apart may be missing. Equal entries are not always repeated.

What was measured:
[1] = molecular target: Pgp3 (Campylobacter jejuni, UniProt Q0P921); test: biochemical; parameters: species or system C. jejuni
Method: Because DABCYL/FITC is a typical FRET quencher–fluorophore pair, an increase in fluorescent signals can be directly detected when it is processed by Pgp3 (Tang et al., 2013). The kinetic parameters (kcat = 0.0209 ± 0.0006 s^−1 and KM = 6.6 ± 0.7 µM) for the substrate were obtained by fitting the data to the Michaelis-Menten equation (Supplementary Fig. 8a).
The enzymatic assay for Pgp3 activity was determined using a fluorescein isothiocyanate (FITC) and 4′-([4′-(Dimethylamino)phenyl]-azo)-benzoic acid (DABCYL) pair for FRET. […] The excitation and emission spectra were set at 495 nm and 525 nm, respectively. Pgp3 (0.1 μM) in 20 mM HEPES pH 7.5, 200 mM NaCl, and 0.4 μM of zinc was used in this assay. The reaction was initiated by adding 3 μL of 0.015–2 mM substrate (final 1.56–200 μM) in the total volume of 30 μL of the reaction mixture. Initial velocities were calculated using slopes of fluorescence signal intensity in 3 min after the initiation of the reaction. In order to elucidate the inhibition mechanism of BMK-S301, initial velocities with various concentrations of substrates were measured in the presence of 40 μM BMK-S301. […] The same method was used for the determination of the IC50 values for inhibitors. Inhibitors in each concentration were pre-incubated with 0.1 μM of Pgp3 for 1 h on ice, and initial velocities were determined for 0.1, 10, 50, 100, 200, 500, and 1000 μM of each inhibitor in reaction with 10 μM of substrate. The IC50 values were calculated using GraphPad Prism 7.

[2] = system: C. jejuni ATCC 33560 WT; test: Cell morphology change monitored by TEM; type: cell-based, Campylobacter jejuni; settings: 37 °C, 24 h, KL-L9P used for improved permeability
Text: Next, we investigated whether our inhibitors could transform C. jejuni from the helical- to curved-rod morphology on exposure to the inhibitors (Fig. 5). […] To investigate the effect of inhibitors on the morphology of C. jejuni cells, we exposed the cells to the inhibitors and checked whether the morphology could be altered.
Cell-morphology change of C. jejuni upon inhibitor treatment was monitored, as described previously with modifications. Briefly, overnight cultures of C. jejuni were harvested from MH agar plates and suspended in MH broth to approximately 1 × 10^6 colony-forming unit (CFU)/mL. A total of 500 μL of the diluted bacterial culture was added into each well of a 24-well plate with 5 μL of two-fold serial dilutions of inhibitor. For the control strain with no inhibitor, the same volume of dilution buffer (20 mM Tris-HCl pH 8.0 and 200 mM NaCl) was used. The plate was incubated under a micro-aerobic condition at 37 °C for 24 h in the static condition. After incubation, 10 μL of the bacterial cultures was placed on formvar/carbon-coated copper grids (200 mesh) and negatively stained with 2% uranyl acetate for 2 s.

[3] = system: Caco-2 epithelial cells; test: Cytotoxicity assay (LDH release); type: cell-based; settings: 3 h; for Cytotoxicity test (LDH release, Triton X-100 lysis = 100%): single replicates, source data Fig. 5c
Method: To examine the cytotoxicity of BMK-[…], the lactate dehydrogenase (LDH) activity was measured using Cytotoxicity Detection Kit^PLUS (LDH; Roche, Switzerland) according to the manufacturer's instructions. Briefly, the monolayers of Caco-2 cells were prepared in a 96 well tissue culture plate and incubated in Dulbecco's modified-eagle medium (DMEM; ATCC) with 10% fetal bovine serum (FBS; Invitrogen), and 0.6% carboxymethylcellulose (CMC) at 37 °C under 5% CO2. […] The 2% Triton X-100 was used to release all LDH of Caco-2 cell as a positive control.

[4] = system: C. jejuni (ATCC 33560); test: Drug accumulation assay (LC-MS)
Method: The accumulation assay was adapted from two different methods[42],[43]. […] The culture was grown overnight at 42 °C under the micro-aerobic condition. The cells were harvested at 6000 g for 15 min and washed with 1 × PBS, followed by resuspension in pre-warmed 1 × PBS to ~10^10 CFU/mL. The cell suspension (1.2 mL) was dispensed into a 24-well plate. Each compound to be examined was added into each well (final concentration = 100 μM). […] After incubation with shaking at 37 °C for 20 min, OD600 of each sample was measured, and the cells were harvested at 6000 g for 10 min at 4 °C. The pellets were resuspended in 250 μL of water, followed by three cycles of Freeze-Thaw with a dry ice/ethanol bath and a 37 °C-heating block in order to extract the compounds from C. jejuni. The cells were pelleted at 13,000 g for 5 min at room temperature. The supernatants (220 μL) were transferred to new tubes. The pellets were resuspended in 100 μL of methanol with vigorous vortexing for 1 min, followed by pelleting as before. The supernatants (100 μL) were combined with the solutions previously collected. The residual cell debris were removed at 20,000 g for 15 min at room temperature. The supernatants (300 μL) were dried with Genevac™ miVac Centrifugal Concentrator at room temperature for 5 h. Finally, the samples were resuspended with appropriate solvents and analyzed by LC-MS.
The suspension was centrifuged and the supernatant was analyzed by LC-MS. LC-MS systems consists of a Bruker impact II ultra-high resolution Qq-time-of-flight mass spectrometer using Hystar 5.0 SR1 software with a Waters Acquity UPLC H-Class system equipped with a quaternary solvent manager, a sample manager-FTN, and a photodiode array detector. The Bruker electrospray ionization source was operated in the positive ion mode, except for BMK-S301 (in the negative ion mode). […] A four-step 10-min LC gradient was as follows: 3 min at 98:2; 3 min to 85:15; 0.1 min to 98:2; 3.9 min at 98:2 for BMK-S101, -S203, and -S301. The ratio of the mobile phases (A = 0.1% formic acid in water, B = 0.1% formic acid in ACN) is given as A:B in LC gradients. […] The quantification was done by integrating the peak areas from extracted-ion chromatograms of corresponding m/z values of each compound.

Pgp3, sequence (Q0P921 entry or part of it): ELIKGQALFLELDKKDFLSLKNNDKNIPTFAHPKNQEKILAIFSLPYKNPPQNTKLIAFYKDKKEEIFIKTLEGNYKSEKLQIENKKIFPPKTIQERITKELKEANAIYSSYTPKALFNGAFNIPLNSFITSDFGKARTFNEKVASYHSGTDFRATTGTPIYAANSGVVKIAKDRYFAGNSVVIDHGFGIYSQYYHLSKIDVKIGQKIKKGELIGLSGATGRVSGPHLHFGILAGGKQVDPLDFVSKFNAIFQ

CC(=O)N[C@@H](Cc1ccc(S(N)(=O)=O)cc1)C(=O)N[C@H](C)C(=O)NO [BMK-S301]
IC50 [1]: 22 ± 1.4 µM | minimum concentration causing morphological changes (helical to curved-rod) [2]: 25 μM | Cytotoxicity test (LDH release, Triton X-100 lysis = 100%) ([3]; 10 μM): 0% (5×) and 4.598% | Cytotoxicity test (LDH release, Triton X-100 lysis = 100%) ([3]; 100 μM): 2.466% and 0% (5×) | toxicity to Caco-2 cells ([3]; LDH release, 10 or 100 μM): not toxic | accumulation fold higher than for BMK-S203 ([4]; 100 μM compound): 54 fold | accumulation fold higher than for ciprofloxacin ([4]; 100 μM compound): 8 fold | intracellular concentration (accumulation) ([4]; 100 μM compound, 37 °C, 20 min, LC-MS, mean): 16.2 ± 1.0 nmole/10^11 CFU | µM (concentration in LC-MS sample) ([4]; single replicates (First, Second, Third), total volume 200 (r6-r19) or 100 (r23-r30), source data Fig. 5b): 0.766 µM and 0.686 µM and 1.447 µM and 1.359 µM and 1.398 µM and 0.649 µM | nmol/1011 CFUs ([4]; single replicates, source data Fig. 5b): 17.92 nmol/1011 CFUs and 16.41 nmol/1011 CFUs and 16.422 nmol/1011 CFUs and 15.620 nmol/1011 CFUs and 15.458 nmol/1011 CFUs and 15.07 nmol/1011 CFUs | Total nmol ([4]; single replicates, total volume 200 or 100, source data Fig. 5b): 0.1532 nmol and 0.1372 nmol and 0.1447 nmol and 0.1359 nmol and 0.1398 nmol and 0.1298 nmol
